For experiment [1], the target named is KRAS G12D/SOS/c-Raf complex (Homo sapiens (Human), UniProt P01116, G12D). Description: KRAS G12D/SOS/c-Raf complex formation inhibitory activity (TR-FRET). As to conditions: human recombinant proteins, 1 hour at room temperature, read-out: IC50, KRAS G12D/SOS/c-Raf complex formation inhibition. The format is biochemical. On the procedure:
Using human recombinant KRAS G12D, SOS and c-Raf proteins, the inhibitory activity of subject compounds on the complex formation of the proteins was examined by a time-resolved fluorescence resonance energy transfer (TR-FRET) method.
Biotinylated AviTag-KRAS G12D (amino acid region of 1-185, GDP) (2.5 μL; 400 nM) and subject compounds dissolved in an assay buffer (50 mM HEPES, 150 mM NaCl, 5 mM MgCl2, 0.05% Tween 20, pH 7.0) were added to a 384-well plate (from Corning) in a liquid volume of 2.5 μL at 40,000 nM to 40 nM. Son of Sevenless (SOS) (amino acid region of 564-1049, 2.5 μL; 1.3 μM) and c-Raf (amino acid region of 51-131) GST (2.5 μL; 130 nM) containing GTP (from Sigma-Aldrich; 2 μM) were added to the plate, and the plate was allowed to stand for 1 hour at room temperature. Then, a mixture liquid (10 μL) of LANCE Ulight-anti-GST (from PerkinElmer; 120 nM) and LANCE Eu-W1024 labeled Streptoavidin (from PerkinElmer; 100 ng/mL) was added, and the 620-nm and 665-nm fluorescence intensities were measured using EnVision 2104 (from PerkinElmer) under the conditions of an excitation wavelength of 337 nm. After standardizing the values with the fluorescence intensity at a reference wavelength of 620 nm, the 50% inhibitory concentrations (IC50) were calculated by Sigmoid-Emax model nonlinear regression analysis with the signaling value in treatment with the solvent taken as 0% inhibition and with the signaling value without the addition of GTP taken as 100% inhibition.
For orientation: TR-FRET usually uses a lanthanide donor and a delayed reading to cut background.

In experiment [2] the test system is ERK phosphorylation (Thr202/Tyr204) in KRAS G12D mutant-positive pancreatic cancer line AsPC-1. Description: ERK phosphorylation inhibitory activity in AsPC-1 (cell ELISA). The format is cell-based. As to conditions: Homo sapiens, read-out: IC50, ERK phosphorylation inhibition. On the procedure: The ERK phosphorylation inhibitory activities of subject compounds were evaluated by measuring phosphorylation of the 202th threonine (Thr202) and the 204th tyrosine (Tyr204) of ERK located downstream of the KRAS signal by cell ELISA.
AsPC-1 cells (ATCC, CRL-1682) were seeded at 36 μL/well on a 384-well plate (from Greiner bio-one) to give 2.0×10^4 cells per well. As for the cell culture conditions, RPMI-1640 medium (from Sigma-Aldrich) containing 10% fetal bovine serum (from GE Life Sciences) was used in the presence of 5% CO2 at 37° C.
The next day, the subject compounds (6 points having final concentrations in the range of 10 μM to 0.3 nM), trametinib (MEK inhibitor) of a final concentration of 1 μM as a positive control and DMSO, which was the solvent for the subject compounds, as a negative control were diluted 100-fold with a fresh medium and were each added at 4 μL per well, followed by culturing for 2 hours. After culturing, a 30% glyoxal solution (40% glyoxal [from Wako] was diluted with Phosphate Buffered Saline [PBS; from Wako) was quickly added at 30 μL per well, and the plate was allowed to stand for an hour at room temperature to thus immobilize the cells. Then, the plate was centrifuged (110× g, seven seconds, hereinafter centrifugation was performed under the same conditions unless otherwise specified) to remove the supernatant, and 0.1% Triton X-100 (from Amersham Biosciences)—containing PBS was added at 20 μL per well. After allowing the plate to stand for 10 minutes at room temperature, the supernatant was removed by centrifugation, and the same operation was further repeated. Next, 0.5% sodium dodecyl sulfate (SDS; from Invitrogen)-containing PBS was added at 20 μL per well. The plate was allowed to stand at room temperature for 30 minutes and was then centrifuged to remove the supernatant. Subsequently, a blocking solution (Intercept Blocking Buffer; from LI-COR Biosciences) was added at 20 μL per well, and the plate was allowed to stand for an hour at room temperature. The supernatant was removed by centrifugation, and an ERK (Thr202/Tyr204) phosphorylation antibody (Phospho-p44/42 MAPK (Erk 1/2) (Thr202/Tyr204) (D13.14.4E) XP Rabbit mAb; from Cell Signaling Technology) diluted 2,500-fold with the blocking solution was added at 10 μL per well as a primary antibody. The plate was allowed to stand at 4° C. overnight.
The next day, the plate was centrifuged to remove the supernatant, and 0.05% Tween-20-containing PBS (from Thermo Scientific; 20× PBS Tween-20 was diluted 20-fold with ion exchange water and used) was added at 20 μL per well. The supernatant was removed by centrifugation to thus wash each well. The washing was performed three times in total. After washing, an IRDye 800CW Goat anti-Rabbit IgG (from LI-COR Biosciences) diluted 1,000-fold with the blocking solution was added at 10 μL per well as a secondary antibody, and the plate was allowed to stand for an hour at room temperature. The plate was centrifuged to remove the supernatant, and each well was washed three times with 0.05% Tween-20-containing PBS in the same manner as after the primary antibody reaction. Centrifugation after the third washing was performed at 171×g for 17 seconds. After removing the supernatant, the plate was dried as it was with air at room temperature for three hours or more, and the 800-nm fluorescent signals were measured with Aerius (from LI-COR Biosciences).
With the signaling value at the time of addition of DMSO taken as 0% inhibition and with the signaling value at the time of addition of […] trametinib taken as 100% inhibition, the 50% inhibition values (IC50) were calculated by Sigmoid-Emax model nonlinear regression analysis.
(In an ELISA, binding on a coated surface is turned into a signal by an enzyme label.)

Experiment [3] deals with KRAS G12D mutant-positive pancreatic cancer line AsPC-1. Description: Non-anchorage-dependent cell growth inhibitory activity in AsPC-1 (spheroid 3D culture). As to conditions: Homo sapiens, ASPC1, 144 h, read-out: IC50, non-anchorage-dependent cell growth inhibition. The format is cell-based. On the procedure:
The non-anchorage-dependent cell growth inhibitory activities of subject compounds were evaluated by spheroid 3D cell culture.
AsPC-1 cells were seeded at 36 μL/well on a low-cell-adhesive round bottom 384-well plate (Prime Surface: from Sumitomo Bakelite) to give 5×10^2 cells per well. The cell culture was performed under the same conditions as in the Test Example 2.
The next day, the subject compounds (6 points having final concentrations in the range of 10 μM to 3.0 nM) and DMSO, which was the solvent for the subject compounds, as a negative control were diluted 100-fold with a fresh medium and were each added at 4 μL per well. After culturing in the presence of 5% CO2 at 37° C. for six days, CellTiter Glo 2.0 (from Promega) was added at 20 μL per well. After stirring with a plate mixer (from FINEPCR) at normal temperature for an hour, the luminescent signals were measured with ARVO X3 (from PerkinElmer).
With the signaling value in treatment with DMSO taken as 0% inhibition and with the signaling value in the medium alone without cells taken as 100% inhibition, the 50% inhibition values (IC50) were calculated by Sigmoid-Emax model nonlinear regression analysis.

Where two headings read alike, the source gives them in different places.

Chain of KRAS G12D/SOS/c-Raf complex (P01116 other isoform, or with tags, fused parts or gaps G12D): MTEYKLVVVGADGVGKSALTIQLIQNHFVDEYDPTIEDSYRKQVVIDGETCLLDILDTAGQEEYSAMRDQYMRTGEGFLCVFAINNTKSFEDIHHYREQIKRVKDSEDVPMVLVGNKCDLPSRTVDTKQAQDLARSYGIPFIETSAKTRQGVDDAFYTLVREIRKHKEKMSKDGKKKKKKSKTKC

Consider `Cc1c(F)cc2[nH]ncc2c1-c1c(C2CC2)cc2c(N3C[C@@H]4C[C@H]3CN4)nc(OC3CCOCC3)nc2c1OCc1ccc(CN2CCN(C)CC2=O)cc1` [Example 2, 1-({4-[({6-cyclopropyl-4-[(1S,4S)-2,5-diazabicyclo[2.2.1]heptan-2-yl]-7-(6-fluoro-5-methyl-1H-indazol-4-yl)-2-[(oxan-4-yl)oxy]quinazolin-8-yl}oxy)methyl]phenyl}methyl)-4-methylpiperazin-2-one], for which the IC50 in experiment [1] is 0.096 µM; in experiment [2] (ASPC1, AsPC-1 cells, 2 hours culture, cell ELISA), 0.049 µM; in experiment [3] (AsPC-1 spheroid 3D culture, six days, CellTiter Glo 2.0), 0.166 µM.
Turning to `Cc1c(F)cc2[nH]ncc2c1-c1c(C2CC2)cc2c(N3C[C@@H]4C[C@H]3CN4)nc(O[C@@H]3CCCc4cnccc43)nc2c1OCc1ccc(Cn2c(=O)n(C)c3ncccc32)cc1` [Example 8, 1-[(4-{[(6-cyclopropyl-4-[(1S,4S)-2,5-diazabicyclo[2.2.1]heptan-2-yl]-7-(6-fluoro-5-methyl-1H-indazol-4-yl)-2-{[(5R)-5,6,7,8-tetrahydroisoquinolin-5-yl]oxy}quinazolin-8-yl)oxy]methyl}phenyl)methyl]-3-methyl-1,3-dihydro-2H-imidazo[4,5-b]pyridin-2-one], the IC50 in experiment [1] came out at 0.04 µM; in experiment [2] (ASPC1, 2 h), 0.03 µM; in experiment [3], 0.073 µM.
The matching figures for `Cc1cc(C)n2cc(Cc3ccc(COc4c(-c5c(C)c(F)cc6[nH]ncc56)c(C5CC5)cc5c(N6C[C@@H]7C[C@H]6CN7)nc(OC6CCOCC6)nc45)cc3)nc2n1` [Example 9, 6-cyclopropyl-4-[(1S,4S)-2,5-diazabicyclo[2.2.1]heptan-2-yl]-8-({4-[(5,7-dimethylimidazo[1,2-a]pyrimidin-2-yl)methyl]phenyl}methoxy)-7-(6-fluoro-5-methyl-1H-indazol-4-yl)-2-[(oxan-4-yl)oxy]quinazoline]: 0.044 µM, 0.044 µM and 0.084 µM.
For the compound `CCN1CCN(Cc2ccc(COc3c(-c4c(C)c(F)cc5[nH]ncc45)c(C4CC4)cc4c(N5C[C@@H]6C[C@H]5CN6)nc(OC5CCOCC5)nc34)cc2)C(=O)C1` [Example 4, 1-({4-[({6-cyclopropyl-4-[(1S,4S)-2,5-diazabicyclo[2.2.1]heptan-2-yl]-7-(6-fluoro-5-methyl-1H-indazol-4-yl)-2-[(oxan-4-yl)oxy]quinazolin-8-yl}oxy)methyl]phenyl}methyl)-4-ethylpiperazin-2-one], the IC50 in experiment [1] was determined as 0.1 µM; in experiment [2] (ASPC1, 2 h), 0.037 µM; in experiment [3] it was 0.099 µM.
The matching figures for `Cc1c(F)cc2[nH]ncc2c1-c1c(C2CC2)cc2c(N3C[C@@H]4C[C@H]3CN4)nc(OC3CCOCC3)nc2c1OCc1ccc(CN2CCN(C(C)C)CC2=O)cc1` [Example 6, 1-({4-[({6-cyclopropyl-4-[(1S,4S)-2,5-diazabicyclo[2.2.1]heptan-2-yl]-7-(6-fluoro-5-methyl-1H-indazol-4-yl)-2-[(oxan-4-yl)oxy]quinazolin-8-yl}oxy)methyl]phenyl}methyl)-4-(propan-2-yl)piperazin-2-one]: 0.091 µM, 0.036 µM and 0.092 µM.
On the same counts, the results for `Cc1c(F)cc2[nH]ncc2c1-c1c(C2CC2)cc2c(N3C[C@@H]4C[C@H]3CN4)nc(OC3CCOCC3)nc2c1OCc1ccc(Cn2nc3n(c2=O)CCOC3)cc1` [Example 12, 2-({4-[({6-cyclopropyl-4-[(1S,4S)-2,5-diazabicyclo[2.2.1]heptan-2-yl]-7-(6-fluoro-5-methyl-1H-indazol-4-yl)-2-[(oxan-4-yl)oxy]quinazolin-8-yl}oxy)methyl]phenyl}methyl)-2,5,6,8-tetrahydro-3H-[1,2,4]triazolo[3,4-c][1,4]oxazin-3-one] are 0.074 µM, 0.072 µM and 0.153 µM.
As to `Cc1c(F)cc2[nH]ncc2c1-c1c(C2CC2)cc2c(N3C[C@@H]4C[C@H]3CN4)nc(OC3CCOCC3)nc2c1OCc1ccc(Cc2nnn(C)n2)cc1` [Example 16, 6-cyclopropyl-4-[(1S,4S)-2,5-diazabicyclo[2.2.1]heptan-2-yl]-7-(6-fluoro-5-methyl-1H-indazol-4-yl)-8-({4-[(2-methyl-2H-tetrazol-5-yl)methyl]phenyl}methoxy)-2-[(oxan-4-yl)oxy]quinazoline], the IC50 in experiment [1] came out at 0.226 µM; in experiment [2] (ASPC1, 2 h) it was 0.093 µM; in experiment [3] it was 0.216 µM.
The matching figures for `Cc1c(F)cc2[nH]ncc2c1-c1c(C2CC2)cc2c(N3C[C@@H]4C[C@H]3CN4)nc(OC3CCOCC3)nc2c1OCc1ccc(Cc2nc3ncccn3n2)cc1` [Example 13, 6-cyclopropyl-4-[(1S,4S)-2,5-diazabicyclo[2.2.1]heptan-2-yl]-7-(6-fluoro-5-methyl-1H-indazol-4-yl)-2-[(oxan-4-yl)oxy]-8-({4-[([1,2,4]triazolo[1,5-a]pyrimidin-2-yl)methyl]phenyl}methoxy)quinazoline]: 0.077 µM, 0.078 µM and 0.13 µM.

The record behind these values is patent US20240150366A1, “4-AMINOQUINAZOLINE COMPOUND” (Astellas Pharma Inc., priority 2021, published 2024).
